Data taken from patent publication US8796328B2, “TRPV1 antagonists” (AbbVie Inc., priority 2012, dated 2014).
Like-named read-outs stand apart in the source and are kept apart here.

How the values were obtained:
[1] = molecular target: T1, human TRPV1 receptor (hTRPV1) (Homo sapiens (Human), UniProt Q8NER1); assay: Acid activation assay (pH 5.0, FLIPR intracellular Ca2+); format: cell-based; conditions: 37.5 μM compound
[2] = molecular target: T1, human TRPV1 receptor (hTRPV1); assay: Capsaicin activation assay (FLIPR intracellular Ca2+); format: cell-based
Method in brief: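 Recombinant HEK293 cells stably expressing hTRPV1, Calcium-4 dye loaded 90–120 min at room temperature, were preincubated with compound (12-point, one-third-log) for 3 min before capsaicin challenge. Peak FLIPR fluorescence minus baseline was normalised to capsaicin control response; IC50 from four-parameter logistic fit.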

T1 sequence (Q8NER1 whole entry): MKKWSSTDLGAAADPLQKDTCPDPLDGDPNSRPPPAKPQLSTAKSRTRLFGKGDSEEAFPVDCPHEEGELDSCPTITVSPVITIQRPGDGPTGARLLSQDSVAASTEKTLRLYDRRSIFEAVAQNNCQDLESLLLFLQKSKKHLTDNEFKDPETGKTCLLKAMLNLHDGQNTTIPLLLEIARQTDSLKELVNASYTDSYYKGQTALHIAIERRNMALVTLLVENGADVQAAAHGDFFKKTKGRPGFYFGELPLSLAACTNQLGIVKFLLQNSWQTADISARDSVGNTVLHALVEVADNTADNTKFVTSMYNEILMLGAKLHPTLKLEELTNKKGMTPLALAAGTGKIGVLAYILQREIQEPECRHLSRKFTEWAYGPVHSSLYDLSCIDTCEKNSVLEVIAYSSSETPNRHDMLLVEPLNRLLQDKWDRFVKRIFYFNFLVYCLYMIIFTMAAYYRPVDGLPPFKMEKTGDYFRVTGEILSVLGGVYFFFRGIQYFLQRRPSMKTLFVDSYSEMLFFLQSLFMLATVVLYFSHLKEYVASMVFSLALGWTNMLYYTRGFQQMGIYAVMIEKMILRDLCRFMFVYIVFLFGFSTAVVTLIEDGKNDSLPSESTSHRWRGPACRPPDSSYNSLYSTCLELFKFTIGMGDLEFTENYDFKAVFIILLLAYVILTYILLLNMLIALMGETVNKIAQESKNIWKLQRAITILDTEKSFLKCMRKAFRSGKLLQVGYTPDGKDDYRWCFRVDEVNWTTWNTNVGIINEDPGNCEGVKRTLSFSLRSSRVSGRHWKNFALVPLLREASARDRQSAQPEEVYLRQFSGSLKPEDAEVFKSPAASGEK

remaining activity at 37.5 µM ([1]; percentage of the maximal pH 5.0-induced response remaining, read-out: hTRPV1 H+ (max % remain)): 72%
human TRPV1 H+ (max % remain) ([1]; Table 2, percentage of maximal pH 5.0-induced response): 72%
IC50 ([2]; Table 2, capsaicin-induced intracellular Ca2+ increase, read-out: human TRPV1 capsaicin IC50): 54 nM
IC50 ([2]; inhibition of capsaicin-induced intracellular Ca2+ increase, compounds added 3 minutes prior to capsaicin, read-out: hTRPV1 cap. IC50): 54 nM
SMILES: CS(=O)(=O)Nc1ccc(CNC(=O)N[C@@H]2CC(CF)(CF)Oc3cc(C(F)(F)F)ccc32)cc1F [Example 10, N-{4-[({[(4R)-2,2-bis(fluoromethyl)-7-(trifluoromethyl)-3,4-dihydro-2H-chromen-4-yl]carbamoyl}amino)methyl]-2-fluorophenyl}methanesulfonamide]
